Legend:
Assay type in all cases: biochemical
[1] = target: T1, PDE4B: The catalytic domain of human PDE4B from S152-S528 (Homo sapiens, UniProt Q07343); experiment: PDE4 IC50 determination by Scintillation Proximity Assay, PDE4B; details: Table 1B, Formula I compounds; read-out: IC50 PDE4B
T1 construct: His6 (N); thrombin cleavage site (N); made in house; host or cells: E. coli
In short: (§1)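 Radiometric SPA: PDE4B (80 ng/ml) or PDE4D (4 ng/ml) hydrolysed [^3H]cAMP over 30 min at 30°, and the bead-bound [^3H]AMP was scintillation-counted.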

[2] = target: T2, PDE4D (Homo sapiens, UniProt Q08499); experiment: PDE4 IC50 determination by Scintillation Proximity Assay, PDE4D; details: Table 1B, Formula I compounds; read-out: IC50 PDE4D
T2 construct: PDE4D: The catalytic domain of human PDE4B from S3 16-V692; His6 (N); thrombin cleavage site (N); made in house; host or cells: E. coli
T2 sequence (Q08499 380-756): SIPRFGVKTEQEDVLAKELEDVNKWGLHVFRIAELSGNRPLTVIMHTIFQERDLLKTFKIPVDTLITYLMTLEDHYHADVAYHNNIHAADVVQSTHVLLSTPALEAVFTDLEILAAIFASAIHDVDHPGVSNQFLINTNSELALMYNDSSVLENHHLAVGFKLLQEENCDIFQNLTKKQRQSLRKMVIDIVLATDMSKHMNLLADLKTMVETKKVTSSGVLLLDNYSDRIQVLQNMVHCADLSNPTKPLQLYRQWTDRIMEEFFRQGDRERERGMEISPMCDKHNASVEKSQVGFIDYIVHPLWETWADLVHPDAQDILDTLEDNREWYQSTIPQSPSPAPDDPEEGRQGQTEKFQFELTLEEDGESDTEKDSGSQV
In short: as §1

[3] = target: T3, full-length human PDE4B2 isozyme (Homo sapiens, UniProt Q07343); experiment: PDE4 IC50 determination by Scintillation Proximity Assay, PDE4B2; details: Table 1B, Formula I compounds; read-out: IC50 PDE4B2
T3 construct: The full-length human PDE4B2 isozyme; His6 (N); TEV cleavage site (N); made in house; host or cells: baculovirus infected insect cells (unpurified lysate)
T3 sequence (Q07343 1-564 isoform Q07343-2): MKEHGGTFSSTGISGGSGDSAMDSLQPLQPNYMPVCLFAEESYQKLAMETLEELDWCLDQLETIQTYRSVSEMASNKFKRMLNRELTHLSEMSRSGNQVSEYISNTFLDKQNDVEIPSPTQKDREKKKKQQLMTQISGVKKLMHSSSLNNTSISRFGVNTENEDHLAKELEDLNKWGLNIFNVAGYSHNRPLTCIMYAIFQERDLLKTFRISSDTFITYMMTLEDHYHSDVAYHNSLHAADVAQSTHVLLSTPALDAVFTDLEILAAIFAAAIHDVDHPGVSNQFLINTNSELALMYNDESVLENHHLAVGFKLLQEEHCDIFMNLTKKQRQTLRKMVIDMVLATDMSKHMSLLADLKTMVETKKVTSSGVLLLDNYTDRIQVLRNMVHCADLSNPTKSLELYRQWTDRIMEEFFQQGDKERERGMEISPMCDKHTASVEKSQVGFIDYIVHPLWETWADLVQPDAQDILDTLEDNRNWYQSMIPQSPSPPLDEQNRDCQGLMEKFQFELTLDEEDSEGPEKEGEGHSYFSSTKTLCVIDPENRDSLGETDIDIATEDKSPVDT
In short: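 Unpurified His6-TEV-tagged full-length human PDE4B2 from baculovirus-infected insect cell lysate (2.5 μl of 50% glycerol stock/ml) hydrolysed [3H]cAMP in 50 mM Tris pH 7.5, 8.3 mM MgCl, 1.7 mM EGTA, 0.01% BSA for 30 min at 30°. Stopped with SPA beads in 18 mM ZnSO4; [3H]AMP scintillation counted, IC50 by non-linear regression.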

[4] = target: T4, full-length human PDE4D5 isozyme (Homo sapiens, UniProt Q08499); experiment: PDE4 IC50 determination by Scintillation Proximity Assay, PDE4D5; details: Table 1B, Formula I compounds; read-out: IC50 PDE4D5
T4 construct: The full-length human PDE4D5 isozyme; His6 (N); TEV cleavage site (N); made in house; host or cells: baculovirus infected insect cells (unpurified lysate)
T4 sequence (Q08499 1-745 isoform Q08499-6): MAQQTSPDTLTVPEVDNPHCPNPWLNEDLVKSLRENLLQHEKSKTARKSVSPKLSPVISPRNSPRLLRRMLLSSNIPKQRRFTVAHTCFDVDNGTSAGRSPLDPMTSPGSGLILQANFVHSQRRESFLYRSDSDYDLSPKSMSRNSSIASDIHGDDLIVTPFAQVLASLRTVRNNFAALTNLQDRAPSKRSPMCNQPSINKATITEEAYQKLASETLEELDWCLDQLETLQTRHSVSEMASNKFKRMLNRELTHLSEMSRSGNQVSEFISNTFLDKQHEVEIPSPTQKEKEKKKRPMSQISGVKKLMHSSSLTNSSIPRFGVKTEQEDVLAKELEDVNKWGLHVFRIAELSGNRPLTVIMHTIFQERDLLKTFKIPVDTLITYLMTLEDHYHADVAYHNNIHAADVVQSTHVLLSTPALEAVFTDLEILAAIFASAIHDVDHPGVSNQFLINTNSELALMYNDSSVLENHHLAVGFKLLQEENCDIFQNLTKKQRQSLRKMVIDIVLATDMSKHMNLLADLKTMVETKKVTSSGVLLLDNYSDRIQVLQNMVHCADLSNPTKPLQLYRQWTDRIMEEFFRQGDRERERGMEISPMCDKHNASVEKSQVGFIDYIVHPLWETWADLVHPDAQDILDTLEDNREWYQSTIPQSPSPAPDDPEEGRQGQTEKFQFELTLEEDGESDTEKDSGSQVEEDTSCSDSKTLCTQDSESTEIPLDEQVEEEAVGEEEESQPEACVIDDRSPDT
In short: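 Unpurified His6-tagged full-length human PDE4D5 from baculovirus-infected insect cell lysate, 0.083 μl glycerol stock/ml, hydrolysed [3H]cAMP in Tris pH 7.5/MgCl/EGTA buffer, 30 min at 30°. ZnSO4/SPA beads stop; [3H]AMP counted. Controls: DMSO and roflumilast; 11-point duplicate curves, nonlinear-regression IC50.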

T1 sequence (Q07343 with tags, fused parts or gaps): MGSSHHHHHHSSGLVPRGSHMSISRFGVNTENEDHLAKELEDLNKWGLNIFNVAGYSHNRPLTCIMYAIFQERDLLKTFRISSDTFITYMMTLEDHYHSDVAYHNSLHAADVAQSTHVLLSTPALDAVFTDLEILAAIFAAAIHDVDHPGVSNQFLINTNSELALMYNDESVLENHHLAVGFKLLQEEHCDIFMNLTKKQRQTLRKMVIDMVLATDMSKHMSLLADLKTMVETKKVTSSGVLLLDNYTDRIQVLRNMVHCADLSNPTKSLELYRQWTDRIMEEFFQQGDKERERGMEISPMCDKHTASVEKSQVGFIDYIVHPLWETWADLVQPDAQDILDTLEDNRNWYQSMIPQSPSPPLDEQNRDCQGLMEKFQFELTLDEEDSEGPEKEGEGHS

Structure (SMILES)	IC50 [1]	IC50 [2]	IC50 [3]	IC50 [4]
CCc1ccccc1Nc1sc(C(=O)c2cc(OC)ccc2OC)c(N)c1C#N [Compound 1-99, 4-Amino-5-(2,5-dimethoxy-benzoyl)-2-(2-ethyl-phenylamino)-thiophene-3-carbonitrile]	< 10 µM	< 10 µM	< 10 µM	< 10 µM
Cc1c(C(=O)c2sc(Nc3cccc(C#N)c3)c(C#N)c2N)cnn1-c1ccccc1 [Compound 1-125, 4-Amino-2-(3-cyano-phenylamino)-5-(5-methyl-1-phenyl-1H-pyrazole-4-carbonyl)-thiophene-3-carbonitrile]	< 10 µM	< 10 µM	< 10 µM	< 10 µM
COc1ccc(Nc2sc(C(=O)c3c(-c4ccccc4)noc3C)c(N)c2C#N)cc1 [Compound 1-129, 4-Amino-2-(4-methoxy-phenylamino)-5-(5-methyl-3-phenyl-isoxazole-4-carbonyl)-thiophene-3-carbonitrile]	< 10 µM	< 10 µM	< 10 µM	< 10 µM
COC(=O)c1ccccc1Nc1sc(C(=O)c2c(-c3ccccc3)noc2C)c(N)c1C#N [Compound 1-130, 2-[4-Amino-3-cyano-5-(5-methyl-3-phenyl-isoxazole-4-carbonyl)-thiophen-2-ylamino]-benzoic acid methyl ester]	< 10 µM	< 10 µM	< 10 µM	< 10 µM
CCOC(=O)c1cc(C(=O)c2sc(NC3CCCC3)c(C#N)c2N)on1 [Compound 1-139, 5-(3-Amino-4-cyano-5-cyclopentylamino-thiophene-2-carbonyl)-isoxazole-3-carboxylic acid ethyl ester]	< 10 µM	< 10 µM	< 10 µM	< 10 µM
COc1ccc(C(=O)c2sc(Nc3cccc(C#N)c3)c(C#N)c2N)c(OC)c1 [Compound 1-155, 4-Amino-2-(3-cyano-phenylamino)-5-(2,4-dimethoxy-benzoyl)-thiophene-3-carbonitrile]	< 10 µM	< 10 µM	< 10 µM	< 10 µM
N#Cc1c(NC2CCCC2)sc(C(=O)c2cc(-c3ccc(Cl)c(Cl)c3)no2)c1N [Compound 1-172, 4-Amino-2-cyclopentylamino-5-[3-(3-4-dichloro-phenyl)-isoxazole-5-carbonyl]-thiophene-3-carbonitrile]	< 10 µM	> 10 µM	< 10 µM	> 10 µM
CSc1cccc(Nc2sc(C(=O)c3ccccc3Cl)c(N)c2C#N)c1 [Compound 1-180, 4-Amino-5-(2-chloro-benzoyl)-2-(3-methylsulfanyl-phenylamino)-thiophene-3-carbonitrile]	< 10 µM	< 10 µM	< 10 µM	< 10 µM
N#Cc1c(Nc2ccc(Oc3ccccc3)cc2)sc(C(=O)c2cc(-c3ccccc3)no2)c1N [Compound 1-187, 4-Amino-2-(4-phenoxy-phenylamino)-5-(3-phenyl-isoxazole-5-carbonyl)-thiophene-3-carbonitrile]	> 10 µM	> 10 µM	> 10 µM	> 10 µM
CCNC(=O)c1cc(C(=O)c2sc(NC3CCCC3)c(C#N)c2N)on1 [Compound 1-198, 5-(3-Amino-4-cyano-5-cyclopentylamino-thiophene-2-carbonyl)-isoxazole-3-carboxylic acid ethylamide]	< 10 µM	< 10 µM	> 10 µM	> 10 µM
CCOC(=O)c1c(NC2CCCC2)sc(C(=O)c2cc(-c3ccccc3)no2)c1N [Compound 1-200, 4-Amino-2-cyclopentylamino-5-(3-phenyl-isoxazole-5-carbonyl)-thiophene-3-carboxylic acid ethyl ester]	> 10 µM	< 10 µM	> 10 µM	> 10 µM

More lines, now with the values ahead:

IC50 [1]	IC50 [2]	IC50 [3]	IC50 [4]	Structure (SMILES)
> 10 µM	> 10 µM	> 10 µM	> 10 µM	N#Cc1c(NC2CCCCC2)sc(C(=O)c2cc(-c3ccccc3)no2)c1N [Compound 1-204, 4-Amino-2-cyclohexylamino-5-(3-phenyl-isoxazole-5-carbonyl)-thiophene-3-carbonitrile]
> 10 µM	> 10 µM	> 10 µM	> 10 µM	N#Cc1c(NCC2CC2)sc(C(=O)c2cc(-c3ccccc3)no2)c1N [Compound 1-206, 4-Amino-2-(cyclopropylmethyl-amino)-5-(3-phenyl-isoxazole-5-carbonyl)-thiophene-3-carbonitrile]
> 10 µM	> 10 µM	< 10 µM	> 10 µM	N#Cc1c(Nc2ccco2)sc(C(=O)c2cc(-c3ccccc3)no2)c1N [Compound 1-208, 4-Amino-2-(furan-2-ylamino)-5-(3-phenyl-isoxazole-5-carbonyl)-thiophene-3-carbonitrile]
< 10 µM	< 10 µM	< 10 µM	< 10 µM	N#Cc1c(NC2CCCO2)sc(C(=O)c2cc(-c3ccccc3)no2)c1N (stereo not shown) [Compound 1-210, 4-Amino-5-(3-phenyl-isoxazole-5-carbonyl)-2-(tetrahydro-furan-2-ylamino)-thiophene-3-carbonitrile]
< 10 µM	< 10 µM	< 10 µM	< 10 µM	N#Cc1c(NC2CCCC2)sc(C(=O)c2cc(-c3c(Cl)cccc3Cl)no2)c1N [Compound 1-211, 4-Amino-2-cyclopentylamino-5-[3-(2,6-dichloro-phenyl)-isoxazole-5-carbonyl]-thiophene-3-carbonitrile]
< 10 µM	< 10 µM	> 10 µM	> 10 µM	N#Cc1c(NCCN2CCOCC2)sc(C(=O)c2cc(-c3ccccc3)no2)c1N [Compound 1-213, 4-Amino-2-(2-morpholin-4-yl-ethylamino)-5-(3-phenyl-isoxazole-5-carbonyl)-thiophene-3-carbonitrile]
> 10 µM	> 10 µM	> 10 µM	> 10 µM	N#Cc1c(NCc2cccc(Cl)c2)sc(C(=O)c2cc(-c3ccccc3)no2)c1N [Compound 1-214, 4-Amino-2-(3-chloro-benzylamino)-5-(3-phenyl-isoxazole-5-carbonyl)-thiophene-3-carbonitrile]
< 10 µM	< 10 µM	< 10 µM	< 10 µM	N#Cc1c(NC2CCCC2)sc(C(=O)c2nc3ccccc3s2)c1N [Compound 1-215, 4-Amino-5-(benzothiazole-2-carbonyl)-2-cyclopentylamino-thiophene-3-carbonitrile]
> 10 µM	> 10 µM	> 10 µM	> 10 µM	COc1cccc(CNc2sc(C(=O)c3cc(-c4ccccc4)no3)c(N)c2C#N)c1 [Compound 1-216]
< 10 µM	< 10 µM	< 10 µM	< 10 µM	CC(C)(C)Nc1sc(C(=O)c2cc(-c3ccccc3)no2)c(N)c1C#N [Compound 1-224, 4-Amino-2-tert-butylamino-5-(3-phenyl-isoxazole-5-carbonyl)-thiophene-3-carbonitrile]
> 10 µM	> 10 µM	> 10 µM	> 10 µM	CC(C)CNc1sc(C(=O)c2cc(-c3ccc(Cl)c(Cl)c3)no2)c(N)c1C#N [Compound 1-226, 4-Amino-5-[3-(3,4-dichloro-phenyl)-isoxazole-5-carbonyl]-2-isobutylamino-thiophene-3-carbonitrile]
< 10 µM	< 10 µM	> 10 µM	> 10 µM	N#Cc1c(NC2CCCC2)sc(C(=O)c2cc(-c3ccc(Cl)cc3Cl)no2)c1N [Compound 1-227, 4-Amino-2-cyclopentylamino-5-[3-(2,4-dichloro-phenyl)-isoxazole-5-carbonyl]-thiophene-3-carbonitrile]
< 10 µM	< 10 µM	> 10 µM	> 10 µM	CCC(CC)Nc1sc(C(=O)c2cc(-c3ccccc3)no2)c(N)c1C#N [Compound 1-228, 4-Amino-2-(1-ethyl-propylamino)-5-(3-phenyl-isoxazole-5-carbonyl)-thiophene-3-carbonitrile]
< 10 µM	< 10 µM	< 10 µM	< 10 µM	CC(C)CNc1sc(C(=O)c2ccc(Oc3ccccc3)cc2)c(N)c1C#N [Compound 1-233, 4-Amino-2-isobutylamino-5-(4-phenoxy-benzoyl)-thiophene-3-carbonitrile]
